The values that follow come from US9920010B2, “CXCR7 receptor modulators” (IDORSIA PHARMACEUTICALS LTD, priority 2013, dated 2018).

The experiment addresses T1, CXCR7 (Homo sapiens, UniProt P25106).
T1 construct: host or cells: CHO-K1 (PathHunter CHO-K1 CXCR7 b-arrestin cell line, stably transfected)
Nature of the experiment: PathHunter CHO-K1 CXCR7 b-arrestin recruitment assay (CXCR7 agonistic activity). Conditions: PathHunter CHO-K1 CXCR7 b-arrestin cell line. It is filed as cell-based. The method, boiled down:
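Stable CHO-K1 line with C-terminally ProLink-tagged CXCR7 and β-arrestin 2–EA fusion; β-arrestin recruitment restores β-gal activity, read by chemiluminescence after 1 h RT detection. Cells seeded 24 h, starved in OPTIMEM 3–4 h, exposed to compounds 90 min at 37 °C in HBSS/HEPES/BSA. Geometric-mean EC50 from repeated measurements.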
For orientation: Arrestin recruitment assays detect the binding of arrestin to an activated receptor.

T1 sequence (P25106 whole entry): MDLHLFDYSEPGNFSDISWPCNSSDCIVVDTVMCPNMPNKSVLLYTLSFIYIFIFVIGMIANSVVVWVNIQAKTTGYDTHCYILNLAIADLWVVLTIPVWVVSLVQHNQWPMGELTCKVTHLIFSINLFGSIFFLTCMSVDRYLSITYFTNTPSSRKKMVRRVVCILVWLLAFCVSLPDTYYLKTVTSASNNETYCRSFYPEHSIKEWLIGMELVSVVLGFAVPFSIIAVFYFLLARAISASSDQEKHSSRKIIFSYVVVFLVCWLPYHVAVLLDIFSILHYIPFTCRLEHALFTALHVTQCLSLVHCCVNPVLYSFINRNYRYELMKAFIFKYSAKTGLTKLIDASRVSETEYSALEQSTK
T1 sequence (P32121 whole entry partner): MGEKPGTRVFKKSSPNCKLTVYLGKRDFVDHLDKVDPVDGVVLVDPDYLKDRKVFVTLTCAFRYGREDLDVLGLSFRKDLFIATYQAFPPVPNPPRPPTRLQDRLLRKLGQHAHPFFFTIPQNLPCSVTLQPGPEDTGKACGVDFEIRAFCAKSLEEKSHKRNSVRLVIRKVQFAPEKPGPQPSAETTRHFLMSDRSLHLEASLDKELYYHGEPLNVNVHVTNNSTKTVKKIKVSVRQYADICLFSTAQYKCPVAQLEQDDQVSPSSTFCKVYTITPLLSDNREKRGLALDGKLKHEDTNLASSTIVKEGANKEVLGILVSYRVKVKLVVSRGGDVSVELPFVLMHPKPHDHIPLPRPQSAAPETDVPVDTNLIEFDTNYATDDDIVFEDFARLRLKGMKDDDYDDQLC

On to `CN(C)CCN(Cc1ccccc1C(F)(F)F)C(=O)CNc1cccc2c1CN(C(=O)N1CCCC1)CC2` [compound 561, N-(2-Dimethylamino-ethyl)-2-[2-(pyrrolidine-1-carbonyl)-1,2,3,4-tetrahydro-isoquinolin-8-ylamino]-N-(2-trifluoromethyl-benzyl)-acetamide], for which the EC50 – broadly, the midpoint of the concentration-response curve – was 7 nM. `CN(C)CCN(Cc1ccccc1)C(=O)/C=C/c1cccc2c1CCN(C(=O)OC(C)(C)C)C2` [Example 93, 5-{(E)-2-[Benzyl-(2-dimethylamino-ethyl)-carbamoyl]-vinyl}-3,4-dihydro-1H-isoquinoline-2-carboxylic acid tert-butyl ester]: a half-maximal effect (EC50) was put at 88 nM.

On to `CN(CCN(Cc1ccccc1C(F)(F)F)C(=O)CNc1cccc2c1CCN(CC1CC1)C2)C1CCOC1` (racemic) [compound 448], for which a half-maximal effect (EC50) was put at 2 nM.

In turn, `O=C(CNc1cccc2c1CN(CC1CC1)CC2)N(CCN1CCCC1)Cc1ccccc1C(F)(F)F` [compound 565, 2-(2-Cyclopropylmethyl-1,2,3,4-tetrahydro-isoquinolin-8-ylamino)-N-(2-pyrrolidin-1-yl-ethyl)-N-(2-trifluoromethyl-benzyl)-acetamide] displayed an EC50 of 4 nM.

`N#CCCN(Cc1ccccc1C(F)(F)F)C(=O)CNc1cccc2c1CCN(CC1CC1)C2` [Example 72, N-(2-Cyano-ethyl)-2-(2-cyclopropylmethyl-1,2,3,4-tetrahydro-isoquinolin-5-ylamino)-N-(2-trifluoromethyl-benzyl)-acetamide]: the concentration giving a half-maximal response (EC50) is 28 nM. The compound `CCN(C)CCN(Cc1ccccc1C(F)(F)F)C(=O)CNc1cccc2c1CCN(CC1CC1)C2` [Example 231, 2-(2-Cyclopropylmethyl-1,2,3,4-tetrahydro-isoquinolin-5-ylamino)-N-[2-(ethyl-methyl-amino)-ethyl]-N-(2-trifluoromethyl-benzyl)-acetamide] had an EC50 of 1 nM. Turning to `CN(C)CCN(Cc1ncccc1Br)C(=O)CNc1cccc2c1CN(CC1CC1)CC2` [compound 486, N-(3-Bromo-pyridin-2-ylmethyl)-2-(2-cyclopropylmethyl-1,2,3,4-tetrahydro-isoquinolin-8-ylamino)-N-(2-dimethylamino-ethyl)-acetamide], the EC50 was 5 nM. For the compound `O=C(Cc1cccc2c1CCN(CC1CC1)C2)N(CCN1CCCC1)Cc1ccccc1C(F)(F)F` [Example 7, 2-(2-Cyclopropylmethyl-1,2,3,4-tetrahydro-isoquinolin-5-yl)-N-(2-pyrrolidin-1-yl-ethyl)-N-(2-trifluoromethyl-benzyl)-acetamide], the midpoint of the response, the EC50, lay at 32 nM. In the case of `CCN1CCc2cccc(NCC(=O)N(CCN(C)C)Cc3cccc(OC)c3)c2C1` [compound 498] it was 118 nM; in that of `COCCN1CCc2c(CCC(=O)N(CCC(C)(C)C)Cc3ncccc3C)cccc2C1` [Example 338, N-(3,3-Dimethyl-butyl)-3-[2-(2-methoxy-ethyl)-1,2,3,4-tetrahydro-isoquinolin-5-yl]-N-(3-methyl-pyridin-2-ylmethyl)-propionamide], 279 nM. Regarding `C=CCN(C)CCN(Cc1ccccc1C(F)(F)F)C(=O)CCc1cccc2c1CN(CC=C)CC2` [compound 467, N-[2-(Allyl-methyl-amino)-ethyl]-3-(2-allyl-1,2,3,4-tetrahydro-isoquinolin-8-yl)-N-(2-trifluoromethyl-benzyl)-propionamide], a half-maximal effect (EC50) was put at 14 nM. For `CCC(C)N1CCc2c(cccc2NCC(=O)N(CCN(C)C)Cc2ccccc2C(F)(F)F)C1` (racemic) [Example 356, rac-2-(2-sec-Butyl-1,2,3,4-tetrahydro-isoquinolin-5-ylamino)-N-(2-dimethylamino-ethyl)-N-(2-trifluoromethyl-benzyl)-acetamide], the midpoint of the response, the EC50, lay at 6 nM. `CCCCNC(=O)N1CCc2c(cccc2NCC(=O)N(CCNC)Cc2ncccc2C(F)(F)F)C1` [compound 431] showed an EC50 of 120 nM.

For the compound `CN(C)CCN(Cc1ccccc1C(F)(F)F)C(=O)CNc1ccc(Cl)c2c1CCN(CC1CC1)C2` [Example 287, 2-(8-Chloro-2-cyclopropylmethyl-1,2,3,4-tetrahydro-isoquinolin-5-ylamino)-N-(2-dimethylamino-ethyl)-N-(2-trifluoromethyl-benzyl)-acetamide], the EC50 worked out at 150 nM. In turn, `CNCCN(Cc1ccccc1C(F)(F)F)C(=O)CNc1cccc2c1CCN(C(=O)NC1CCCCC1)C2` [compound 407] gave an EC50 of 326 nM. In the case of `CN(C)CCN(Cc1ncccc1Cl)C(=O)CNc1cccc2c1CCN(C(=O)[C@@H]1C[C@@H]1F)C2` (racemic) [Example 293, rac-N-(3-Chloro-pyridin-2-ylmethyl)-N-(2-dimethylamino-ethyl)-2-[2-((1S*,2S*)-2-fluoro-cyclopropanecarbonyl)-1,2,3,4-tetrahydro-isoquinolin-5-ylamino]-acetamide] it was 20 nM; in that of `CCN1CCc2cccc(NCC(=O)N(CCN(C)C)Cc3ccc(C)cn3)c2C1` [compound 527], 162 nM. Turning to `CN1CCCC1CCN(Cc1ccccc1)C(=O)Cc1cccc2c1CCN(CC1CC1)C2` (racemic) [Example 4, rac-N-Benzyl-2-(2-cyclopropylmethyl-1,2,3,4-tetrahydro-isoquinolin-5-yl)-N-[2-(1-methyl-pyrrolidin-2-yl)-ethyl]-acetamide], the 50% effective concentration (EC50) worked out at 47 nM. In the case of `CC(C)N1CCc2c(cccc2NCC(=O)N(CCN(C)C)Cc2ccccc2)C1` [compound 109] it was 73 nM; in that of `COCCN1CCc2c(cccc2NCC(=O)N(CCN(C)C(=O)OC(C)(C)C)Cc2ccccc2C(F)(F)F)C1` [Example 297, {2-[{2-[2-(2-Methoxy-ethyl)-1,2,3,4-tetrahydro-isoquinolin-5-ylamino]-acetyl}-(2-trifluoromethyl-benzyl)-amino]-ethyl}-methyl-carbamic acid tert-butyl ester], 461 nM. Turning to `CN(C)CCN(Cc1ccccc1C(F)(F)F)C(=O)CNc1cccc2c1CN(C(=O)C(C)(C)C)CC2` [compound 551, N-(2-Dimethylamino-ethyl)-2-[2-(2,2-dimethyl-propionyl)-1,2,3,4-tetrahydro-isoquinolin-8-ylamino]-N-(2-trifluoromethyl-benzyl)-acetamide], the response was half-maximal at 35 nM (EC50). Compound `CNCCN(Cc1ncccc1C(F)(F)F)C(=O)CNc1cccc2c1CCN(C(=O)OC)C2` [compound 419, 5-({[(2-Methylamino-ethyl)-(3-trifluoromethyl-pyridin-2-ylmethyl)-carbamoyl]-methyl}-amino)-3,4-dihydro-1H-isoquinoline-2-carboxylic acid methyl ester] gave an EC50 of 6 nM.

For the compound `COCCN1CCc2c(/C=C/C(=O)N(CCN(C)C(=O)OC(C)(C)C)Cc3ccccc3C(F)(F)F)cccc2C1` [Example 319, {2-[{(E)-3-[2-(2-Methoxy-ethyl)-1,2,3,4-tetrahydro-isoquinolin-5-yl]-acryloyl}-(2-trifluoromethyl-benzyl)-amino]-ethyl}-methyl-carbamic acid tert-butyl ester], the concentration for a half-maximal effect (EC50) turned out to be 443 nM.

On to `O=C(CNc1cccc2c1CCN(CC1CC1)C2)N(CCN1CCCC1)Cc1ccccc1Cl` [Example 43, N-(2-Chloro-benzyl)-2-(2-cyclopropylmethyl-1,2,3,4-tetrahydro-isoquinolin-5-ylamino)-N-(2-pyrrolidin-1-yl-ethyl)-acetamide], for which the response was half-maximal at 2 nM (EC50). `CNCCN(Cc1ccccc1C(F)(F)F)C(=O)CNc1cccc2c1CCN(C(=O)CC(C)C)C2` [compound 391, N-(2-Methylamino-ethyl)-2-[2-(3-methyl-butyryl)-1,2,3,4-tetrahydro-isoquinolin-5-ylamino]-N-(2-trifluoromethyl-benzyl)-acetamide]: the concentration giving a half-maximal response (EC50) worked out at 49 nM.

`CCN1CCc2cccc(NCC(=O)N(CCCN(C)C)Cc3ccccc3)c2C1` [compound 507]: the EC50 amounted to 74 nM. Turning to `CCN1CCc2cccc(NCC(=O)N(Cc3ccccc3)C3CCN(C)C3)c2C1` (racemic) [compound 512], the concentration giving a half-maximal response (EC50) is 56 nM. For the compound `Cc1ccc(CN(CCN(C)C)C(=O)CNc2cccc3c2CCN(CC2CC2)C3)nc1` [Example 258, 2-(2-Cyclopropylmethyl-1,2,3,4-tetrahydro-isoquinolin-5-ylamino)-N-(2-dimethylamino-ethyl)-N-(5-methyl-pyridin-2-ylmethyl)-acetamide], the EC50 was determined as 27 nM. Compound `CCN1CCc2c(cccc2OCC(=O)N(CCN(C)C)Cc2ccccc2Cl)C1` [compound 171, N-(2-Chloro-benzyl)-N-(2-dimethylamino-ethyl)-2-(2-ethyl-1,2,3,4-tetrahydro-isoquinolin-5-yloxy)-acetamide] had an EC50 of 18 nM. In the case of `O=C(CNc1cccc2c1CCN(C(=O)[C@@H]1C[C@@H]1F)C2)N(Cc1ccccc1C(F)(F)F)CC1(O)CCCC1` (racemic) [Example 372, rac-2-[2-((1S*,2S*)-2-Fluoro-cyclopropanecarbonyl)-1,2,3,4-tetrahydro-isoquinolin-5-ylamino]-N-(1-hydroxy-cyclopentylmethyl)-N-(2-trifluoromethyl-benzyl)-acetamide] it was 271 nM; in that of `CN(C)CCN(Cc1ncccc1F)C(=O)CNc1cccc2c1CCN(CC1CC1)C2` [Example 271, 2-(2-Cyclopropylmethyl-1,2,3,4-tetrahydro-isoquinolin-5-ylamino)-N-(2-dimethylamino-ethyl)-N-(3-fluoro-pyridin-2-ylmethyl)-acetamide], 10 nM.

Compound `CC(C)C(=O)N1CCc2cccc(NCC(=O)N(CCN(C)C)Cc3ccccc3)c2C1` [compound 191] registered a concentration for a half-maximal effect (EC50) of 59 nM. In turn, `CN(C)CCN(Cc1ccccc1Cl)C(=O)COc1cccc2c1CCN(CC1CC1)C2` [compound 172, N-(2-Chloro-benzyl)-2-(2-cyclopropylmethyl-1,2,3,4-tetrahydro-isoquinolin-5-yloxy)-N-(2-dimethylamino-ethyl)-acetamide] yielded a concentration for a half-maximal effect (EC50) of 2 nM.
